Laboratory results: patent US20030220524A1, “Sulfur containing compounds” (priority 2000, published 2003)
pIC50: −log10 of the molar value.

Assays:
Experiment in all cases: MTT assay
Format in all cases: cell-based
[1] = system: WM793 melanoma tumour cell line; conditions: Homo sapiens, 48 h, read-out: MTT50
Experimental: (§1) All cell lines were assayed as asynchronously growing cells. Leukemic cell lines, OCI-AML-2, OCI-AML-3 (referred to hereafter as AML-2 and AML-3, respectively), NB-4, KK, B1, G2, and W1 were cultured in alpha-minimal essential medium (α-MEM) (Princess Margaret Hospital Media Services) supplemented with 10% fetal bovine serum (FBS) (Sigma, St. Louis, Mo.). Non-transformed, diploid fibroblast lines WI38 and IMR90, were cultured in α-MEM and MEM F-15, respectively supplemented with 10% FBS. Media for IMR90 cells was also supplemented with 1.5 g/L bicarbonate and 1 mM pyruvate. Breast tumour cell lines, MDA-231, SK-BR-3, MCF-7, ZR-751, and melanoma tumour cell lines, WM9, WM983, WM793, 1232, were grown in α-MEM supplemented with 10% fetal bovine serum. Prostate tumour cell lines, DU145 and PC-3, were grown in RPMI 1640 media supplemented with 10% FBS. All cell lines were cultured in the presence of penicillin/streptomycin. Mononucleated cells were isolated from normal bone marrow using Ficoll hypaque and then T-cell depleted. T-cell depletion was performed by incubating the mononucleated bone marrow cells in α-MEM at a concentration of 2×10^7 cells/mL with 10% absor FBS and 10% (v/v) sheep red blood cells for 4 to 16 h. Absor FBS was prepared beforehand by heating FBS at 56° C. for 1 h, incubating with sheep red blood cells at 0.5% (v/v) for 1 h and then filtering the FBS with a […]. The T-cell depleted, mononucleated cells were recovered using Ficoll hypaque and were maintained in α-MEM supplemented with 20% FBS and 10% 5637 ? nditioned media. 5637 conditioned media ? s previously harvested from confluent 5637 cells after a 3 day incubation. Normal bone marrow from bone marrow transplant donor was collected following informed consent according to institutional guidelines.
(§2) Approximately 20 mg of each compound was dissolved in 5 mL of ACS grade acetone (Sigma) using a 5 mL volumetric flask. Stock solutions of the compounds were stored in the dark at −20° C. Compounds were diluted prior to each experiment.
(§3) Adherent cells were seeded at 67×10^3 cells/mL in a 96 well plate (Falcon, Mississauga, Ontario) the day prior to exposure to compound. Suspension cells were seeded at 27×10^4 cells/mL in a 96 well plate the day of exposure to compound. Mononucleated, T-cell depleted normal bone marrow cells were seeded at 67×10^4 cells/mL in a 96 well plate the day of exposure to compound. Compounds and solvent control were added to cells and assayed in triplicate or sextuplet. Following 48 h of incubation at 37° C. with 5% CO2, 40 μL of a 5 mg/mL solution of 3-[4,5-dimethylthiazol-2-yl]-2,5-diphenyltetrazolium bromide (MTT) substrate (Sigma) in Dulbecco's phosphate-buffered saline (D-PBS) was added. After 4 h of incubation at 37° C. with 5% CO2, the resulting violet formazan precipitate was solubilized by the addition of 80 μL of a 0.01 M HCI, 10% sodium dodecyl sulfate (SDS; Sigma) solution overnight at 37° C. with 5% CO2. The plates were then analyzed using the BioRad Benchmark Microplate Reader (BioRad Laboratories, Hercules, Calif.) at 570 nm to determine the optical density of the samples. MTT data was analyzed using Prism 3.0 (GraphPad Software, Inc., San Diego, Calif.) by the Chou-Talalay method. MTT graphs shown are a representative experiment.
(§4) Adherent cells were seeded at 67×10^3 cells/mL in a 96 well plate (Falcon, Mississauga, Ontario) the day prior to exposure to compound. Suspension cells were seeded at 27×10^4 cells/mL in a 96 well plate the day of exposure to compound. Mononucleated, T-cell depleted normal bone marrow cells were seeded at 67×10^4 cells/mL in a 96 well plate the day of exposure to compound. Compounds and solvent control were added to cells and assayed in triplicate or sextuplet. […]

[2] = system: ZR-751 breast tumour cell line; conditions: Homo sapiens, ZR-75-1, 48 h, read-out: MTT50
Experimental: as §1, §2, §3, §4

[3] = system: SK-BR-3 breast tumour cell line; conditions: Homo sapiens, 48 h, read-out: MTT50
Experimental: as §1, §2, §3, §4

[4] = system: 1232 melanoma tumour cell line; conditions: 48 h, read-out: MTT50
Experimental: as §1, §2, §3, §4

[5] = system: WM9 melanoma tumour cell line; conditions: 48 h, read-out: MTT50
Experimental: as §1, §2, §3, §4

[6] = system: WM983 melanoma tumour cell line; conditions: 48 h, read-out: MTT50
Experimental: as §1, §2, §3, §4

[7] = system: MDA-231 breast tumour cell line; conditions: Homo sapiens, MDA-MB-231, 48 h, read-out: MTT50
Experimental: as §1, §2, §3, §4

[8] = system: DU145 prostate tumour cell line; conditions: Homo sapiens, DU-145, 48 h, read-out: MTT50
Experimental: as §1, §2, §3, §4

CCC(=O)OCSSc1ccccc1 [Compound Q, 1-phenyl-1,2-dithiapropyl propionate] gave a pIC50 [1] of 4.33, a pIC50 [2] of 4.28 and a pIC50 [3] of 4.23. The pIC50 [4] was 4.25, the pIC50 [5] was 4.39 and the pIC50 [6] was 4.33. For the same compound, the pIC50 [7] was 4.16 and the pIC50 [8] was 4.18.
